This assay addresses T1, human PAD4 (Homo sapiens, UniProt Q9UM07).
T1 construct: human PAD4 (NM_012387), A2P663, was PCR amplified; His-SUMO (N, cleaved yes); made in house; host or cells: E. coli BL21(DE3)
Description: In vitro PAD4 BAEE biochemical assay. Conditions: human PAD4, BAEE substrate; 5 nM PAD4, 2 mM calcium chloride, 3 mM BAEE; geometric mean of multiple experiments. The method in brief:
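Tag-free recombinant hPAD4 (5 nM), 2 mM CaCl2, 3 mM BAEE, 50 mM MOPS pH 7.6, 2 mM DTT; 30 min compound preincubation, 2 h reaction, all 25 °C. EDTA quench; ammonia read via o-phthalaldehyde amine coupling, 1 h.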

T1 sequence (Q9UM07 2-663): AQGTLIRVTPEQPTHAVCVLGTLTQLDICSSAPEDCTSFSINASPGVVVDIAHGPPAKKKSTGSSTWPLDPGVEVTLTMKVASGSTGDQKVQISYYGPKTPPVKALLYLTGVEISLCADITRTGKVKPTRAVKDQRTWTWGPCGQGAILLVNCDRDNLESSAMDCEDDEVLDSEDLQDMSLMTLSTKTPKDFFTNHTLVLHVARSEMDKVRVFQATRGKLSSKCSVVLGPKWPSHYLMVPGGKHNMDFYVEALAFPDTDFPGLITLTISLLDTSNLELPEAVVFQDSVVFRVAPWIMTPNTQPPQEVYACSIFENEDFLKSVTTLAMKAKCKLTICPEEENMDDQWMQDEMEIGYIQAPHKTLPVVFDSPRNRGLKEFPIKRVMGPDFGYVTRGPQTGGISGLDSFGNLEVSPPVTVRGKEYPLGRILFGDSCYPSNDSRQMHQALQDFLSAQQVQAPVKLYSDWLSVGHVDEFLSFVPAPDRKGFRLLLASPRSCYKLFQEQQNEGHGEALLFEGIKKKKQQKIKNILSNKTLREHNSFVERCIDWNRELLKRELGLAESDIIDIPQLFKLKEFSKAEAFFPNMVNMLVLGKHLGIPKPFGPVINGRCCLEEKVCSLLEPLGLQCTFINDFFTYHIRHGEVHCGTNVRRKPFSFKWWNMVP

As usually defined, the IC50 is the concentration that gives 50% inhibition. With `COc1cc(C(=O)N2[C@H]3CC[C@@H]2[C@H](N)C3)cc2nc(-c3cc4ccc([C@@H](C)NC(=O)N5CC[C@H](F)C5)nc4n3CC3CC3)c(C3CC3)n12` [Example 216, (3~{S})-~{N}-[(1~{R})-1-[2-[7-[(1~{R},2~{R}, 4~{S})-2-amino-7-azabicyclo[2.2.1]heptane-7-carbonyl]-3-cyclopropyl-5-methoxyimidazo [1,2-a]pyridin-2-yl]-1-(cyclopropylmethyl)pyrrolo [2,3-b]pyridin-6-yl]ethyl]-3-fluoropyrrolidine-1-carboxamide], the IC50 came out at 48.3 nM.

Consider `COc1cc(C(=O)N2[C@H]3CC[C@@H]2[C@H](N)C3)cc2nc(-c3cc4ccc([C@@H](C)NC(=O)N[C@@H](C)c5cccnc5)nc4n3CC3CC3)c(C3CC3)n12` [Example 217, 1-[(1~{R})-1-[2-[7-[(1~{R},2~{R},4~{S})-2-amino-7-azabicyclo[2.2.1]heptane-7-carbonyl]-3-cyclopropyl-5-methoxyimidazo [1,2-a]pyridin-2-yl]-1-(cyclopropylmethyl)pyrrolo [2,3-b]pyridin-6-yl]ethyl]-3-[(1~{S})-1-pyridin-3-ylethyl]urea], for which the IC50 stood at 45.9 nM.

`COc1cc(C(=O)N2[C@H]3CC[C@@H]2[C@H](N)C3)cc2nc(-c3cc4ccc([C@@H](C)NC(=O)N[C@H](C)c5cccnc5)nc4n3CC3CC3)c(C3CC3)n12` [Example 218, 1-[(1~{R})-1-[2-[7-[(1~{R},2~{R},4~{S})-2-amino-7-azabicyclo[2.2.1]heptane-7-carbonyl]-3-cyclopropyl-5-methoxyimidazo [1,2-a]pyridin-2-yl]-1-(cyclopropylmethyl)pyrrolo [2,3-b]pyridin-6-yl]ethyl]-3-[(1~{R})-1-pyridin-3-ylethyl]urea]: the IC50 was 55.5 nM.

With `COc1cc(C(=O)N2[C@H]3CC[C@@H]2[C@H](N)C3)cc2nc(-c3cc4ccc([C@@H](C)NC(=O)N(C)Cc5cccc(=O)[nH]5)nc4n3CC3CC3)c(C)n12` [Example 220, 3-[(1~{R})-1-[2-[7-[(1~{R},2~{R},4~{S})-2-amino-7-azabicyclo[2.2.1]heptane-7-carbonyl]-5-methoxy-3-methylimidazo [1,2-a]pyridin-2-yl]-1-(cyclopropylmethyl)pyrrolo [2,3-b]pyridin-6-yl]ethyl]-1-methyl-1-[(6-oxo-1~{H}-pyridin-2-yl)methyl]urea], the IC50 stood at 79.1 nM.

As to `COc1cc(C(=O)N2[C@H]3CC[C@@H]2[C@H](N)C3)cc2nc(-c3cc4ccc([C@@H](C)NC(=O)N(C)C(C)c5cccnc5)nc4n3CC3CC3)c(C)n12` (stereo partly drawn) [Example 221, 3-[(1~{R})-1-[2-[7-[(1~{R},2~{R},4~{S})-2-amino-7-azabicyclo[2.2.1]heptane-7-carbonyl]-5-methoxy-3-methylimidazo [1,2-a]pyridin-2-yl]-1-(cyclopropylmethyl)pyrrolo [2,3-b]pyridin-6-yl]ethyl]-1-methyl-1-(1-pyridin-3-ylethyl)urea], the IC50 turned out to be 62 nM.

For the molecule `COc1cc(C(=O)N2[C@H]3CC[C@@H]2[C@H](N)C3)cc2nc(-c3cc4ccc([C@@H](C)NC(=O)N(C)Cc5cccnc5)nc4n3CC3CC3)c(C)n12` [Example 222, 3-[(1~{R})-1-[2-[7-[(1~{R},2~{R},4~{S})-2-amino-7-azabicyclo[2.2.1]heptane-7-carbonyl]-5-methoxy-3-methylimidazo [1,2-a]pyridin-2-yl]-1-(cyclopropylmethyl)pyrrolo [2,3-b]pyridin-6-yl]ethyl]-1-methyl-1-(pyridin-3-ylmethyl)urea], the IC50 worked out at 20 nM.

With `COc1cc(C(=O)N2[C@H]3CC[C@@H]2[C@H](N)C3)cc2nc(-c3cc4ccc([C@@H](C)NC(=O)NCc5ccncc5)nc4n3CC3CC3)c(C)n12` [Example 223, 1-[(1~{R})-1-[2-[7-[(1~{R},2~{R},4~{S})-2-amino-7-azabicyclo[2.2.1]heptane-7-carbonyl]-5-methoxy-3-methylimidazo [1,2-a]pyridin-2-yl]-1-(cyclopropylmethyl)pyrrolo [2,3-b]pyridin-6-yl]ethyl]-3-(pyridin-4-ylmethyl)urea], the IC50 worked out at 77.3 nM.

Take `COc1cc(C(=O)N2[C@H]3CC[C@@H]2[C@H](N)C3)cc2nc(-c3cc4ccc([C@@H](C)NC(=O)NCc5ncccn5)nc4n3CC3CC3)c(C)n12` [Example 224, 1-[(1~{R})-1-[2-[7-[(1~{R},2~{R},4~{S})-2-amino-7-azabicyclo[2.2.1]heptane-7-carbonyl]-5-methoxy-3-methylimidazo [1,2-a]pyridin-2-yl]-1-(cyclopropylmethyl)pyrrolo [2,3-b]pyridin-6-yl]ethyl]-3-(pyrimidin-2-ylmethyl)urea]: the IC50 came to 31.5 nM.

Take `COc1cc(C(=O)N2[C@H]3CC[C@@H]2[C@H](N)C3)cc2nc(-c3cc4ccc([C@@H](C)NC(=O)N5CC(C(N)=O)C5)nc4n3CC3CC3)c(C)n12` [Example 225, 1-~{N}-[(1~{R})-1-[2-[7-[(1~{R},2~{R},4~{S})-2-amino-7-azabicyclo[2.2.1]heptane-7-carbonyl]-5-methoxy-3-methylimidazo [1,2-a]pyridin-2-yl]-1-(cyclopropylmethyl)pyrrolo [2,3-b]pyridin-6-yl]ethyl]azetidine-1,3-dicarboxamide]: the IC50 came out at 81.3 nM.

Regarding `COc1cc(C(=O)N2[C@H]3CC[C@@H]2[C@H](N)C3)cc2nc(-c3cc4ccc([C@@H](C)NC(=O)NCc5cccnc5)nc4n3CC3CC3)c(C)n12` [Example 226, 1-[(1~{R})-1-[2-[7-[(1~{R},2~{R},4~{S})-2-amino-7-azabicyclo[2.2.1]heptane-7-carbonyl]-5-methoxy-3-methylimidazo [1,2-a]pyridin-2-yl]-1-(cyclopropylmethyl)pyrrolo [2,3-b]pyridin-6-yl]ethyl]-3-(pyridin-3-ylmethyl)urea], the 50% inhibitory concentration (IC50) turned out to be 42.3 nM.

In the case of `COc1cc(C(=O)N2[C@H]3CC[C@@H]2[C@H](N)C3)cc2nc(-c3cc4ccc([C@@H](C)NC(=O)N5CC(O)C5)nc4n3CC3CC3)c(C)n12` [Example 227, ~{N}-[(1~{R})-1-[2-[7-[(1~{R},2~{R},4~{S})-2-amino-7-azabicyclo[2.2.1]heptane-7-carbonyl]-5-methoxy-3-methylimidazo [1,2-a]pyridin-2-yl]-1-(cyclopropylmethyl)pyrrolo [2,3-b]pyridin-6-yl]ethyl]-3-hydroxyazetidine-1-carboxamide], the IC50 came out at 65.2 nM.

For the molecule `COc1cc(C(=O)N2[C@H]3CC[C@@H]2[C@H](N)C3)cc2nc(-c3cc4ccc([C@@H](C)NC(=O)N5CCC(C(=O)O)C5)nc4n3CC3CC3)c(C)n12` (stereo partly drawn) [Example 228], the IC50 turned out to be 48.6 nM.

On to `COc1cc(C(=O)N2[C@H]3CC[C@@H]2[C@H](N)C3)cc2nc(-c3cc4ccc([C@@H](C)NC(=O)NC5COC5)nc4n3CC3CC3)c(C)n12` [Example 229, 1-[(1~{R})-1-[2-[7-[(1~{R},2~{R},4~{S})-2-amino-7-azabicyclo[2.2.1]heptane-7-carbonyl]-5-methoxy-3-methylimidazo [1,2-a]pyridin-2-yl]-1-(cyclopropylmethyl)pyrrolo [2,3-b]pyridin-6-yl]ethyl]-3-(oxetan-3-yl)urea], for which the IC50 is 108 nM.

For `COc1cc(C(=O)N2[C@H]3CC[C@@H]2[C@H](N)C3)cc2nc(-c3cc4ccc([C@@H](C)NC(=O)N5CC(C)(C(=O)O)C5)nc4n3CC3CC3)c(C)n12` [Example 230, 1-[[(1~{R})-1-[2-[7-[(1~{R},2~{R},4~{S})-2-amino-7-azabicyclo[2.2.1]heptane-7-carbonyl]-5-methoxy-3-methylimidazo [1,2-a]pyridin-2-yl]-1-(cyclopropylmethyl)pyrrolo [2,3-b]pyridin-6-yl]ethyl]carbamoyl]-3-methylazetidine-3-carboxylic acid], the IC50 is 70 nM.

For `COc1cc(C(=O)N2[C@H]3CC[C@@H]2[C@H](N)C3)cc2nc(-c3cc4ccc([C@@H](C)NC(=O)NC5CCOC5)nc4n3CC3CC3)c(C)n12` (stereo partly drawn) [Example 231, 1-[(1~{R})-1-[2-[7-[(1~{R},2~{R},4~{S})-2-amino-7-azabicyclo[2.2.1]heptane-7-carbonyl]-5-methoxy-3-methylimidazo [1,2-a]pyridin-2-yl]-1-(cyclopropylmethyl)pyrrolo [2,3-b]pyridin-6-yl]ethyl]-3-(oxolan-3-yl)urea], the IC50 is 64.2 nM.

On to `COc1cc(C(=O)N2[C@H]3CC[C@@H]2[C@H](N)C3)cc2nc(-c3cc4ccc([C@@H](C)NC(=O)N5CC(F)(F)C5)nc4n3CC3CC3)c(C)n12` [Example 232, N—((R)-1-(2-(7-((1R,2R,4S)-2-amino-7-azabicyclo[2.2.1]heptane-7-carbonyl)-5-methoxy-3-methylimidazo[1,2-a]pyridin-2-yl)-1-(cyclopropylmethyl)-1H-pyrrolo[2,3-b]pyridin-6-yl)ethyl)-3,3-difluoroazetidine-1-carboxamide], for which the IC50 is 68.5 nM.

With `COc1cc(C(=O)N2[C@H]3CC[C@@H]2[C@H](N)C3)cc2nc(-c3cc4ccc([C@@H](C)NC(=O)NCc5ccccc5)nc4n3CC3CC3)c(C)n12` [Example 233, 1-[(1~{R})-1-[2-[7-[(1~{R},2~{R},4~{S})-2-amino-7-azabicyclo[2.2.1]heptane-7-carbonyl]-5-methoxy-3-methylimidazo [1,2-a]pyridin-2-yl]-1-(cyclopropylmethyl)pyrrolo [2,3-b]pyridin-6-yl]ethyl]-3-benzylurea], the IC50 is 103 nM.

Consider `COc1cc(C(=O)N2[C@H]3CC[C@@H]2[C@H](N)C3)cc2nc(-c3cc4ccc([C@@H](C)NC(=O)N5CC(C#N)C5)nc4n3CC3CC3)c(C)n12` [Example 234, ~{N}-[(1~{R})-1-[2-[7-[(1~{R},2~{R},4~{S})-2-amino-7-azabicyclo[2.2.1]heptane-7-carbonyl]-5-methoxy-3-methylimidazo [1,2-a]pyridin-2-yl]-1-(cyclopropylmethyl)pyrrolo [2,3-b]pyridin-6-yl]ethyl]-3-cyanoazetidine-1-carboxamide], for which the IC50 stood at 149 nM.

Values taken from patent US12240862B2, “Inhibitors of peptidylarginine deiminases” (Gilead Sciences, Inc., priority 2020, dated 2025).
